Assay results published in patent US9687479B2, “Multisubstituted aromatic compounds as serine protease inhibitors” (VERSEON CORPORATION, priority 2013, dated 2017).
Like-named read-outs stand apart in the source and are kept apart here.

Columns and labels:
[1] = target: Human KLKB1 (Homo sapiens (Human), UniProt P03952); assay: KLKB1 kallikrein activity inhibition assay (chromogenic substrate S-2302); type: biochemical
Summary of the method: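 Enzyme at a final 3 nM was assayed in 0.05 M Tris pH 7.4, 0.01 M NaCl and 0.2% PEG-8000 at room temperature, with compounds as ten-point threefold dilutions.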

[2] = target: Recombinant human tissue kallikrein (KLK1) (Homo sapiens (Human), UniProt P06870); assay: KLK1 kallikrein activity inhibition assay (Pro-Phe-Arg-AMC substrate); type: biochemical
Recombinant human tissue kallikrein (KLK1), sequence (P06870 25-262): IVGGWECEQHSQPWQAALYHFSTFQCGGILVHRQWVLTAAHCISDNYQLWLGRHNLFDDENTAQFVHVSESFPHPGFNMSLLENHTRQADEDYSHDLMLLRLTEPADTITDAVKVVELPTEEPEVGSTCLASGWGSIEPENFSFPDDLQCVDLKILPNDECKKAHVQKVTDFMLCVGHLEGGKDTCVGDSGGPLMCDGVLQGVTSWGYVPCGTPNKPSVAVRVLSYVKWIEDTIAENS
Protocol: The KLK1 kallikrein activity reported herein (e.g., Tables B and C) was obtained as follows. Recombinant human tissue kallikrein (KLK1) was obtained from R&D Systems. […] KLK1 enzyme is activated by incubating 0.5 mg/ml KLK1 combined with 0.1 μg/ml thermolysin in a buffer of 0.05 M Tres (pH 7.5), 0.15 M NaCl, and 0.01 M CaCl2 for one hour at 37° C. The thermolysin is then deactivated by the addition of equal parts 20 mM 1, 10 phenanthroline solution in water. The activated KLK1 solution is then added to CHES buffer (0.05 M CHES, 0.15 M NaCl, 0.01 M CaCl2, pH 10) for a final concentration of 5 nM along with the test article and incubated for 10 minutes. […] Substrate activation is read 10 minutes after substrate addition using a Synergy H1 multifunction plate reader (Biotek) programmed with a 360 nm excitation wavelength and a 480 nm emission wavelength. Inhibitor response was established by adding test compound as ten point, three-fold serial dilutions, as known in the art. The IC50 was calculated by plotting the percent (%) inhibition against compound concentration and fitting the data to a constrained four parameter sigmoidal curve, as known in the art.

[3] = Pharmacokinetics in mice (i.v. and p.o.); type: in vivo, male CD-1 mice; conditions: plasma
Protocol: Each compound is administered intravenously (i.v.) as a single dose via tail vein or orally (p.o.) as a single dose via gastric gavage to male CD-1 mice of nominal weights between 20 g and 26 g. Nominal doses are 1 mg/kg and 5 mg/kg for i.v. and p.o., respectively. In some examples (dose type A), both p.o. and i.v. doses are prepared by dissolving the test compound in 5% dimethyl acetamide and diluted in tetraethylene glycol for a final concentration of 0.25 mg/mL. In other examples (dose type B), i.v. doses are prepared by dissolving test compounds in 20% dimethyl acetamide, 40% polyethylene glycol 300 and 40% phosphate buffered saline, and p.o. doses are prepared by dissolving test compounds in carboxymethyl cellulose suspension (1% by weight) in water and 2.5% dimethyl acetamide.
Animals are housed in standard holding cages with food and water available ad libitum except for animals used for p.o. dosing which are fasted overnight prior to dosing. Samples are taken in triplicate via cardiac puncture at times prior to dosing and at 0.083 (i.v. only), 0.25, 0.5, 1, 2, 4, 8, and 24 hours after administration. Plasma is obtained by centrifuge and stored frozen until analyzed by LC-MS/MS using a Shimadzu VP System HPLC coupled to a Applied Biosystems MDS SCIEX API 3000 triple quadrapole MS. Assay results are calibrated using reference samples prepared in a range between 1.5 and 5000 ng/mL.
Pharmacokinetic parameters are calculated from mean concentration values using a non-compartmental analysis as described in the following and as apparent to those of ordinary skill in the art. Half-lives (t1/2) and elimination rate constants (λ) are determined by log linear regression using equal weighting on the last three finite sample time points. Concentration at time zero (C0) for the i.v. data is established by the extrapolation of log linear regression using equal weighting on the first three sample time points. Area under the curve (AUC) values are calculated using linear trapezoidal integration. Systemic clearance (CL) is calculated as the ratio of dosage and AUC. […] Percent oral bioavailability (% F) is determined from the ratio of i.v. and p.o. AUC values weighted by dosage.

[4] = target: Human thrombin (Homo sapiens (Human), UniProt P00734); assay: Thrombin protease activity inhibition assay (chromogenic substrate S-2238); type: biochemical; conditions: 3 nM thrombin, 125 μM S-2238, 10 min pre-incubation, RT
Summary of the method: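 Thrombin at 3 nM final in 0.05 M Tris pH 7.4, 0.015 M NaCl, 0.01% PEG-8000, at room temperature; compounds as ten-point three-fold dilutions.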

Human KLKB1, sequence (P03952 391-638 limits assumed): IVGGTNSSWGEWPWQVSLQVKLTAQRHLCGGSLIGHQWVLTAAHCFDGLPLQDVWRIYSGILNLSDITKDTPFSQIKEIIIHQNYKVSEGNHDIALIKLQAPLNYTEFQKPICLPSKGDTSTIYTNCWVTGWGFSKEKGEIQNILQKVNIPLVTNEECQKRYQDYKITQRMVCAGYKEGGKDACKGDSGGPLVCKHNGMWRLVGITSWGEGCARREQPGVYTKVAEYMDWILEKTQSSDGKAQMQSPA
Human KLKB1, sequence (P03952 20-390 partner limits assumed): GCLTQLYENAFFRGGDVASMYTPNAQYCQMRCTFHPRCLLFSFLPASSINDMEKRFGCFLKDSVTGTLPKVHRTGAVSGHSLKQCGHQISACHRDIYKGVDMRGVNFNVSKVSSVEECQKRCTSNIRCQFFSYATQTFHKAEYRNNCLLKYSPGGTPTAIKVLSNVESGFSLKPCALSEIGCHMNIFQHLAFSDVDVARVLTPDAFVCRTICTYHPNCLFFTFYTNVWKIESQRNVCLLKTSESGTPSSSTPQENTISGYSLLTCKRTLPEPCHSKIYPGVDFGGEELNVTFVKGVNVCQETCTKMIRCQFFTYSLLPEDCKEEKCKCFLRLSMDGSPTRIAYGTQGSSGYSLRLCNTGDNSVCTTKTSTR

Structure (SMILES) | IC50 ([1]; Table C) [nM] | IC50 ([2]; Table C) [µM] | IC50 ([1]; Table B) [nM] | IC50 ([2]; Table B) [µM] | IC50 [4] [nM] | also measured
COc1ccccc1C(=O)n1nc(-c2ccc(N(C)C)cc2)nc1NCc1ccc(Cl)s1 [Cmpd 393] | 100 to 1000 | 10 to 100 |  |  |  | 
CC(C)(C)C(=O)n1nc(C2CCNCC2)c(F)c1NCc1ccc(Cl)s1 [Cmpd 24] |  |  |  |  |  | bioavailability ([3]; male, CD-1, mouse, po, 5 mg/kg, read-out: % F): 70%; AUC ([3]; mouse, iv, male CD-1 mice, single i.v. dose 1 mg/kg, dose type A (5% dimethyl acetamide, tetraethylene glycol), read-out: i.v. AUC): 200 ng·h/mL; C0 ([3]; mouse, iv, male CD-1 mice, single i.v. dose 1 mg/kg, dose type A (5% dimethyl acetamide, tetraethylene glycol), read-out: i.v. C0): 200 ng/mL; clearance ([3]; mouse, iv, male CD-1 mice, single i.v. dose 1 mg/kg, dose type A (5% dimethyl acetamide, tetraethylene glycol), read-out: i.v. CL (converted)): 83.3 mL/min/kg; Vd ([3]; mouse, iv, male CD-1 mice, single i.v. dose 1 mg/kg, dose type A (5% dimethyl acetamide, tetraethylene glycol), read-out: i.v. Vd): 8 L/kg; half-life ([3]; mouse, iv, male CD-1 mice, single i.v. dose 1 mg/kg, dose type A (5% dimethyl acetamide, tetraethylene glycol), read-out: i.v. t1/2 (converted)): 60 min; AUC ([3]; mouse, po, male CD-1 mice, single p.o. dose 5 mg/kg, dose type A (5% dimethyl acetamide, tetraethylene glycol), read-out: p.o. AUC): 600 ng·h/mL; half-life ([3]; mouse, po, male CD-1 mice, single p.o. dose 5 mg/kg, dose type A (5% dimethyl acetamide, tetraethylene glycol), read-out: p.o. t1/2 (converted)): 60 min
COc1ccccc1C(=O)n1nc(C2CCNCC2)nc1NCc1ccc(Cl)s1 [Cmpd 387] | < 100 | 10 to 100 |  |  |  | 
COc1ccc(CNc2nc(-c3cccnc3)nn2C(=O)c2ccccc2)cc1 [Cmpd 361] | 1000 to 10000 | 1 to 10 |  |  |  | 
Nc1ccccc1C(=O)n1nc(-c2ncccc2F)cc1NCc1ccc(Cl)s1 [Cmpd 276] |  |  | 1000 to 10000 | 10 to 100 |  | 
O=C(c1ccccc1Cl)n1nc(-c2cccn(Cc3cccnc3)c2=O)cc1NCc1ccc(Cl)s1 [Cmpd 247, 3-1-[(2-chlorophenyl)carbonyl]-5-[(5-chlorothiophen-2-yl)methyl]amino-1H-pyrazol-3-yl-1-(pyridin-3-ylmethyl)-1,2-dihydropyridin-2-one] |  |  | < 100 | > 100 | < 100 | 
COc1ccc(C(=O)n2nc(C3CCOCC3)nc2NCc2ccc(Cl)s2)c(OC)c1 [Cmpd 384] | 100 to 1000 | 10 to 100 |  |  |  | 
COc1ccccc1C(=O)n1nc(-c2cccnc2)nc1SC [Cmpd 366, 3-1-[(2-methoxyphenyl)carbonyl]-5-(methylsulfanyl)-1H-1,2,4-triazol-3-ylpyridine] | 1000 to 10000 | 1 to 10 |  |  |  | 
O=C(c1ccsc1)n1nc(-c2ccncc2)nc1NCc1ccccc1 [Cmpd 407] | 100 to 1000 | > 100 |  |  |  | 
COc1ccc(C(=O)n2nc(-c3cccn(Cc4cccnc4)c3=O)cc2NCc2ccc(Cl)s2)c(OC)c1 [Cmpd 126, 3-(5-[(5-chlorothiophen-2-yl)methyl]amino-1-[(2,4-dimethoxyphenyl)carbonyl]-1H-pyrazol-3-yl)-1-(pyridin-3-ylmethyl)-1,2-dihydropyridin-2-one] |  |  | 1000 to 10000 | > 100 | < 100 | 
CC(C)(C)C(=O)n1nc(-c2cccn(Cc3cccnn3)c2=O)cc1NCc1ccc(Cl)s1 [Cmpd 81, 3-(5-[(5-chlorothiophen-2-yl)methyl]amino-1-(2,2-dimethylpropanoyl)-1H-pyrazol-3-yl)-1-(pyridazin-3-ylmethyl)-1,2-dihydropyridin-2-one] |  |  | 1000 to 10000 | > 100 | < 100 | 
O=C(c1ccsc1)n1nc(-c2cccnn2)cc1NCc1ccc(Cl)s1 [Cmpd 292] |  |  | 100 to 1000 | > 100 |  | 
COc1ccc(CNc2nc(-c3ccccn3)nn2C(=O)CCc2ccccc2)cc1 [Cmpd 323] | 1000 to 10000 | 10 to 100 |  |  |  | 
COCCn1cccc(-c2cc(NCc3ccc(Cl)s3)n(C(=O)C3(C)CCOCC3)n2)c1=O [Cmpd 149, 3-(5-[(5-chlorothiophen-2-yl)methyl]amino-1-[(4-methyloxan-4-yl)carbonyl]-1H-pyrazol-3-yl)-1-(2-methoxyethyl)-1,2-dihydropyridin-2-one] |  |  | 1000 to 10000 | > 100 | > 100000 | 
Cc1ccccc1C(=O)n1nc(-c2ccccn2)nc1NCc1ccc(Cl)s1 [Cmpd 391] | 100 to 1000 | 10 to 100 |  |  |  | 
O=C(O)Cn1cccc(-c2cc(NCc3ccc(Cl)s3)[nH]n2)c1=O [Cmpd 59, 2-[3-(5-[(5-chlorothiophen-2-yl)methyl]amino-1H-pyrazol-3-yl)-2-oxo-1,2-dihydropyridin-1-yl]acetic acid] |  |  | 1000 to 10000 | > 100 | 10000 to 100000 | 
COc1ccccc1C(=O)n1nc(-c2ncccn2)nc1NCc1ccccc1 [Cmpd 18] | 100 to 1000 | 10 to 100 |  |  |  | 
O=C(c1ccccc1)n1nc(-c2ccccn2)nc1NCc1ccccc1 [Cmpd 362] | 100 to 1000 | 10 to 100 |  |  |  | 
O=C(c1ccsc1)n1nc(-c2ccccn2)cc1NCc1ccc(Cl)s1 [Cmpd 293] |  |  | 100 to 1000 | > 100 |  | 
COc1ccccc1C(=O)n1nc(-c2ccc[nH]c2=O)cc1NCc1ccc(Cl)s1 [Cmpd 132, 3-(5-[(5-chlorothiophen-2-yl)methyl]amino-1-[(2-methoxyphenyl)carbonyl]-1H-pyrazol-3-yl)-1,2-dihydropyridin-2-one] |  |  | 1000 to 10000 | > 100 | < 100 | 
O=C(c1ccc(N2CCOCC2)cc1)n1nc(-c2cccn(Cc3cccnc3)c2=O)cc1NCc1ccc(Cl)s1 [Cmpd 213, 3-(5-[(5-chlorothiophen-2-yl)methyl]amino-1-[4-(morpholin-4-yl)phenyl]carbonyl-1H-pyrazol-3-yl)-1-(pyridin-3-ylmethyl)-1,2-dihydropyridin-2-one] |  |  | 100 to 1000 | > 100 | < 100 | 
COc1ccccc1C(=O)n1nc(-c2ccccn2)nc1NCc1nccs1 [Cmpd 332] | 10000 to 100000 | 0.1 to 1 |  |  |  | 
COCCn1cccc(-c2cc(NCc3ccc(Cl)s3)n(C(=O)c3ccccc3Cl)n2)c1=O [Cmpd 242, 3-1-[(2-chlorophenyl)carbonyl]-5-[(5-chlorothiophen-2-yl)methyl]amino-1H-pyrazol-3-yl-1-(2-methoxyethyl)-1,2-dihydropyridin-2-one] |  |  | 100 to 1000 | > 100 | < 100 | 
O=C(c1ccccc1Cl)n1nc(-c2cccn(Cc3ccncc3)c2=O)cc1NCc1ccc(Cl)s1 [Cmpd 248, 3-1-[(2-chlorophenyl)carbonyl]-5-[(5-chlorothiophen-2-yl)methyl]amino-1H-pyrazol-3-yl-1-(pyridin-4-ylmethyl)-1,2-dihydropyridin-2-one] |  |  | 100 to 1000 | > 100 | < 100 | 
COc1ccccc1C(=O)n1nc(C2CCCCC2O)cc1NCc1ccc(Cl)s1 (centres unmarked) [Cmpd 282] |  |  | 1000 to 10000 | > 100 |  | 
O=C(c1cccc2c1OCCO2)n1nc(-c2cccn(Cc3ccccn3)c2=O)cc1NCc1ccc(Cl)s1 [Cmpd 113, 3-(5-[(5-chlorothiophen-2-yl)methyl]amino-1-[(2,3-dihydro-1,4-benzodioxin-5-yl)carbonyl]-1H-pyrazol-3-yl)-1-(pyridin-2-ylmethyl)-1,2-dihydropyridin-2-one] |  |  | 100 to 1000 | 10 to 100 | < 100 | 
Nc1ccccc1C(=O)n1nc(-c2ccco2)cc1NCc1ccc(Cl)s1 [Cmpd 277] |  |  | 1000 to 10000 | 10 to 100 |  | 
O=C(c1ccoc1)n1nc(C2CCOCC2)c(F)c1NCc1ccc(Cl)s1 [Cmpd 294] |  |  | 1000 to 10000 | > 100 |  | 
COc1ccc(CNc2nc(-c3ccccn3)nn2C(=O)c2ccccc2)cc1 [Cmpd 360] | 1000 to 10000 | 1 to 10 |  |  |  | 
